According to US20140271766A1 (priority 2013, published 2014):
“And” between values parts separate entries of the source, which are not always exact repeats. Equal entries are not always repeated. Where two headings read alike, the source gives them in different places. Marks after values point to notes of the source that are not given here.

How the values were obtained:
[1] = human, in vivo
[2] = human, in vivo; remark: listed apart in the source
[3] = buprenorphine, individual patient

CO[C@@]12CC[C@@]3(C[C@@H]1[C@](C)(O)C(C)(C)C)[C@H]1Cc4ccc(O)c5c4[C@@]3(CCN1CC1CC1)[C@H]2O5 [buprenorphine]
Cave from Day 21 to removal, higher in higher dose group as compared with lower dose group [1]: 93%
Cmax, average, higher in higher dose group as compared with lower dose group [1]: 62%
reduction in buprenorphine concentrations from Day 17 to removal [1]: ≤ 50%
shortest half-life during the plateau phase [1]: 25 weeks
time to reach plateau phase of buprenorphine concentrations [1]: ≤ 21 days
Renal clearance [2]: 0.0552 mL/min
Model predicted concentration at removal ([3]; 2 implants): 263 pg/ml and 342 pg/ml (2×) and 252 pg/ml and 447 pg/ml and 338 pg/ml
Time from implant to reaching 2x last concentration ([3]; 2 implants): 180 h
α-Half Life ([3]; 2 implants): 115^b hours
β-Half Life ([3]; 2 implants): 3578^bc hours
γ-Half life ([3]; 2 implants): 120 weeks
Model predicted concentration at removal ([3]; 4 implants): 6.69 pg/mL and 5.33 pg/mL and 5.76 pg/mL and 5.01 pg/mL and 7.78 pg/mL
Time from implant to reaching 2x last concentration ([3]; 4 implants): 690 h and 710 h
β-Half Life ([3]; 4 implants): 12.0 h and 16.0 h and 24.0 h
